Results: patent US9028856B2, “Synergistic pesticide compositions” (priority 2008, dated 2015)

Assays:
[1] = system: Musca domestica, susceptible strain WHO(N); assay: Contact efficacy against houseflies on filter papers in glass dishes; assay type: in vivo; conditions: % a.i. conc. in acetone on filter papers, Table 97
Experimental: Male Musca domestica, susceptible strain WHO(N), were used.
A solution of the active ingredient in acetone was prepared. A concentration row was made. After evaporation of the acetone (30′), the dishes were closed by a glass lid and transferred into the test room. One day later twenty flies, anaesthetized with CO2, are counted into each dish. At regular intervals, knock down was recorded (cumulatively). Each test consisted of one replicate. […]

[2] = system: Musca domestica, susceptible strain WHO(N); assay: Topical insecticide application to houseflies; assay type: in vivo; conditions: 0.5 μl per fly, % a.i. conc. in acetone, Table 95
Experimental: Male Musca domestica, susceptible strain WHO(N), or other strains were used.
The flies were anaesthetized with CO2, and ten individuals were positioned (on their back) on a filter paper which was on the top of a carbon dioxide emitting device. […]
Afterwards the insects were transferred into a beaker closed by a gauze lid with a water saturated cotton pad on the top.
At regular intervals, mortality was recorded (cumulatively).

[3] = system: Culex quinquefasciatus mosquito; assay: USDA Petri Dish Method, 3 min exposure to treated glazed tile (twenty 4-6 day old females); assay type: in vivo; conditions: fipronil 0.01% AI with or without adjuvant
Experimental: MATERIALS AND METHODS: Solutions of resmethrin at 1 and 0.5% AI were prepared with and without adjuvant in acetone. […] USDA Petri Dish Method was used as initial screening protocol. Twenty, 4-6 day old female Culex quinquefasciatus mosquitoes were exposed to each treatment for 3 minutes and then moved to a clean untreated white paper index card. Treatments were replicated a minimum of three times. Mosquito knockdown was evaluated at 3 minute intervals for the first 15 minutes and then at 5 minute intervals for the remainder of an hour. A small cotton ball soaked in sucrose solution was added on the screen top of the petri-dish as a drinking source after the 2 hour evaluation. Mortality was evaluated at 24 hours after exposure.
(§1) Treatments were allowed to dry overnight. USDA Petri Dish Method was used as initial screening protocol. Twenty, 4-6 day old female Culex mosquitoes were exposed to each treatment for 3 minutes and then moved to a clean untreated white paper index card. Treatments were replicated a minimum of three times. Mosquito knockdown was evaluated at various intervals through 3 hours after exposure. A small cotton ball soaked in sucrose solution was added on the screen top of the petri-dish as a drinking source. Mortality was evaluated at 24 hours after exposure.
as §1, with “female Culex quinquefasciatus mosquitoes were” for “female Culex mosquitoes were”, “intervals through 2 hours after” for “intervals through 3 hours after”, “solution was then added on” for “solution was added on”
as §1, with “Culex quinquefasciatus” for “Culex”, “hourly intervals.” for “intervals through 3 hours after exposure.”, “source after 2 hours.” for “source.”

[4] = assay type: physicochemical; conditions: classified from Log P
Description: As used herein, a “partition coefficient” is defined as the ratio of concentrations of an un-ionized compound between solutions of water and octanol. To measure the partition coefficient of ionizable solutes, the pH of the aqueous phase is adjusted such that the predominant form of the compound is un-ionized. The logarithm of the ratio of the concentrations of the un-ionized solute in the solvents is referred to herein as log P or log K ow.
As noted herein, the octanol-water partition coefficient may be used to identify the cuticular penetration of a particular active ingredient. One factor in the relative speed through which any insecticide acts is the insecticide's ability to cross the insect cuticle. A determining factor for cuticle penetration is Log K ow, also known as Log P. Log K ow (Log P) is the octanol-water partition coefficient for a neutral molecule. Log P is used hereinfurther, but, as noted above, the term is synonymous with Log K ow. As previously noted, the cuticular penetration of any particular active ingredient as against a plant cuticle is not indicative of that same active ingredient's ability to penetrate an insect cuticle.
The cuticular penetration of a compound is classified as “INTERMEDIATE” when the Log P value is between about 2.0 and about 4.0.

[5] = octanol-water partition coefficient (Log K ow), Table 1; cited from earlier work
[6] = system: Argentine ant, Linepithema humile; assay: Knockdown/mortality of ant workers under continuous exposure on treated glazed tile
Outline: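 0.5% AI imidacloprid in acetone, alone or with 0.1, 1.0 or 5.0% additive (benzenepropanoic acid, oleic acid, methyl oleate, methyl linoleate, methyl palmitate or BHA), 1 ml dried overnight on glazed tile (~161 cm^2). Ten workers confined under continuous exposure, water from 3 h; knockdown/mortality scored at intervals and 24 h; ≥3 replicates.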

[7] = system: susceptible/normal German cockroach (Monheim strain), Blattella germanica; assay: Knockdown/mortality of male cockroaches under continuous exposure on treated glazed tile; assay type: in vivo; conditions: fipronil 0.001% (FIG. 48); ethiprole 0.01% (FIG. 55); with or without adjuvant
Experimental: Treatments were allowed to dry overnight. […] Treatments were replicated a minimum of three times. […]
Treatments were allowed to dry overnight. […] Treatments were replicated a minimum of three times. Cockroach knockdown/mortality was evaluated at 5 minute intervals for the first 60 minutes after exposure and then at 2, 18 and 24 hours.

[8] = system: Red Imported Fire ant (RIFA), Solenopsis invicta; assay: Knockdown/mortality of ant workers under continuous exposure on treated glazed tile; assay type: in vivo; conditions: fipronil 0.01% AI with or without adjuvant
Description: (§2) Treatments were allowed to dry overnight. […] Treatments were replicated minimum three times.
(§3) Treatments were allowed to dry overnight. […] Treatments were replicated a minimum of three times.

[9] = system: Odorous House ant, Tapinoma sessile; assay: as above; assay type: in vivo; conditions: fipronil 0.001% (FIG. 45); ethiprole 0.01% (FIG. 53); with or without adjuvant
Description: Actual coverage was about 5″×5″ (or 161 cm2) for easy handling. Treatments were allowed to dry overnight. […] Treatments were replicated minimum three times.
as §2, §3
Treatments were allowed to dry overnight. […] Treatments were replicated minimum of three times. […] The results are shown in FIG. 84 (No adjuvant alone treatment was performed).

[10] = system: Aedes aegypti mosquito; assay: USDA Petri Dish Method, 3 min exposure to treated glazed tile; assay type: in vivo; conditions: Aedes aegypti, glazed tile, 3 min exposure
Outline: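 Resmethrin or clothianidin in acetone, with or without adjuvant, applied to glazed tile and dried overnight; twenty 4-6 day old female mosquitoes exposed 3 minutes, then moved to clean index card. Knockdown scored at intervals over hours; mortality at 24 hours with sucrose provided; at least three replicates.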

## Cc1ccc(O)c(-n2nc3ccccc3n2)c1 [0.5% Compound B]
[1]; 15′
  % knock down after: 0%
[1]; 30′
  % knock down after: 0%
[1]; 1 h
  % knock down after: 0%
[1]; 1.5 h
  % knock down after: 0%
[1]; 2 h
  % knock down after: 0%
[1]; 3 h
  % knock down after: 0%
[1]; 4 h
  % knock down after: 0%
[1]; 6 h
  % knock down after: 0%
[1]; 1 d
  % knock down after: 70%
[2]; 15′
  % Mortality after: 0%
[2]; 30′
  % Mortality after: 0%
[2]; 1 h
  % Mortality after: 0%
[2]; 2 h
  % Mortality after: 0%
[2]; 4 h
  % Mortality after: 0%
[2]; 1 d
  % Mortality after: 60%

## CC1(C)[C@H](C(=O)O[C@H](C#N)c2cccc(Oc3ccccc3)c2)[C@@H]1C=C(Br)Br [0.0000256% DTM]
[2]; 15′
  % Mortality after: 10%
[2]; 30′
  % Mortality after: 20%
[2]; 1 h
  % Mortality after: 30%
[2]; 2 h
  % Mortality after: 20%
[2]; 4 h
  % Mortality after: 20%
[2]; 1 d
  % Mortality after: 60%

## N#Cc1nn(-c2c(Cl)cc(C(F)(F)F)cc2Cl)c(N)c1[S+]([O-])C(F)(F)F (single isomer, unassigned) [fipronil, reference compound]
[3]
  mortality at 24 hours (FIG. 44): around 50%
[4]
  Likelihood of Direct Insect Cuticular Penetration: Fast (classified as “FAST” when it has a Log P value of about >4.0)
[5]
  Log P: 4.0
[6]; fipronil 0.001% with or without adjuvant (FIG. 43)
  time at which 100% mortality was seen: around 25 hours
[7]
  mortality at 25 hours: around 40%
[8]
  time to a relatively high percentage of mortality (around 80%): around 20 hours
[9]
  time at which 100% mortality was observed: 25 h

## spiromesifen
[4]
  Likelihood of Direct Insect Cuticular Penetration: Fast (classified as “FAST” when it has a Log P value of about >4.0)
[5]
  Log P: 4.6

## CC1(C)C(C=C(Br)Br)C1C(=O)OC(C#N)c1cccc(Oc2ccccc2)c1 (stereo not shown) [0.000128% DTM]
[2]; 15′
  % Mortality after: 20%
[2]; 30′
  % Mortality after: 50%
[2]; 1 h
  % Mortality after: 70%
[2]; 2 h
  % Mortality after: 70%
[2]; 4 h
  % Mortality after: 80%
[2]; 1 d
  % Mortality after: 50%

## CCC(C)(C)C(=O)OC1=C(c2ccc(Cl)cc2Cl)C(=O)OC12CCCCC2 [spirodiclofen]
[4]
  Likelihood of Direct Insect Cuticular Penetration: Fast (classified as “FAST” when it has a Log P value of about >4.0)
[5]
  Log P: 5.8

## CC(C)=CC1C(C(=O)OCc2coc(Cc3ccccc3)c2)C1(C)C (stereo not shown) [resmethrin]
[4]
  Likelihood of Direct Insect Cuticular Penetration: Fast (classified as “FAST” when it has a Log P value of about >4.0)
[5]
  Log P: 5.4
[10]
  toxicity / efficacy of the substance alone (summary in words): did not provide mosquito knockdown

## spinosad
[4]
  Likelihood of Direct Insect Cuticular Penetration: Intermediate-Fast
[5]
  Log P: 2.8-5.2

## CC(COc1ccc(Oc2ccccc2)cc1)Oc1ccccn1 (stereo not shown) [pyriproxifen]
[4]
  Likelihood of Direct Insect Cuticular Penetration: Fast (classified as “FAST” when it has a Log P value of about >4.0)
[5]
  Log P: 5.4

## CN/C(=N\[N+](=O)[O-])NCc1cnc(Cl)s1 [clothianidin]
[4]
  Likelihood of Direct Insect Cuticular Penetration: Slow (classified as “SLOW” when the compound has a Log P value of about <2.0)
[5]
  Log P: 0.7

## CC1(C)[C@H](C(=O)O[C@H](C#N)c2cccc(Oc3ccccc3)c2)[C@@H]1C=C(Br)Br [0.00064% DTM]
[2]; 15′
  % Mortality after: 100%
[2]; 30′
  % Mortality after: 100%
[2]; 1 h
  % Mortality after: 100%
[2]; 2 h
  % Mortality after: 100%
[2]; 4 h
  % Mortality after: 100%
[2]; 1 d
  % Mortality after: 80%

## O=C(NC(=O)c1c(F)cccc1F)Nc1cc(Cl)c(OC(F)(F)C(F)C(F)(F)F)c(Cl)c1F (stereo not shown) [noviflumuron]
[4]
  Likelihood of Direct Insect Cuticular Penetration: Fast (classified as “FAST” when it has a Log P value of about >4.0)
[5]
  Log P: 4.9

## COC(C)(C)CCC[C@H](C)C/C=C/C(C)=C/C(=O)OC(C)C (racemic) [methoprene]
[4]
  Likelihood of Direct Insect Cuticular Penetration: Fast (classified as “FAST” when it has a Log P value of about >4.0)
[5]
  Log P: >6.0

## N#C/N=C1\SCCN1Cc1ccc(Cl)nc1 [thiacloprid]
[4]
  Likelihood of Direct Insect Cuticular Penetration: Slow (classified as “SLOW” when the compound has a Log P value of about <2.0)
[5]
  Log P: 1.3

## abamectin
[4]
  Likelihood of Direct Insect Cuticular Penetration: Fast (classified as “FAST” when it has a Log P value of about >4.0)
[5]
  Log P: 4.4

## CCOC(=O)NCCOc1ccc(Oc2ccccc2)cc1 [fenoxycarb]
[4]
  Likelihood of Direct Insect Cuticular Penetration: Fast (classified as “FAST” when it has a Log P value of about >4.0)
[5]
  Log P: 4.1

## CC1(C)C(C=C(Cl)Cl)C1C(=O)OC(C#N)c1ccc(F)c(Oc2ccccc2)c1 (stereo not drawn) [β-cyfluthrin, reference compound]
[4]
  Likelihood of Direct Insect Cuticular Penetration: Fast (classified as “FAST” when it has a Log P value of about >4.0)
[5]
  Log P: 5.9
[6]; Argentine ant, treated glazed tile
  toxicity / efficacy of the substance alone (summary in words): extremely effective at killing the ants
[10]
  toxicity / efficacy of the substance alone (summary in words): 100% knockdown, or nearly 100% knockdown even in the absence of the adjuvant
